# Laboratory results: patent US20240382629A1, “HETEROBIVALENT AND HOMOBIVALENT AGENTS TARGETING FIBROBLAST ACTIVATION PROTEIN ALPHA AND/OR PROSTATE-SPECIFIC MEMBRANE ANTIGEN” (The Johns Hopkins University, priority 2021, published 2024)
# Like-named read-outs stand apart in the source and are kept apart here.
# How the values were obtained:
# FAP = FAP (Homo sapiens (Human), UniProt Q12884); test: FAP inhibition assay (recombinant enzyme, Z-Gly-Pro-AMC substrate); assay type: biochemical
# Procedure: (§1) PSMA binding affinities of the compounds were determined using a competitive inhibition assay as previously reported. […] FAP, prolyl endopeptidase (PREP), and […] (DPPIV) inhibition assays: Recombinant enzymes (FAP, PREP, DPPIV) were purchased from R&D Systems (Minneapolis, MN). […] Z-Gly-Pro-AMC was used as a substrate for FAP and PREP. H-Gly-Pro-AMC was used as a substrate for DPPIV. The recombinant enzyme (0.4 μg/mL) was incubated with varying amounts of the test articles in the presence of the designated substrate (80 μM) for 10 min at room temperature. Fluorescence intensity was measured with 380 nm excitation and 460 nm emission using the Cytation 5 Cell Imaging Multi-Mode Reader (BioTek, Winooski, VT). IC50 and Ki values were obtained using a sigmoidal dose-response function.
# FAP+ HT-1080 tumors = test: Small animal PET/CT of ^68Ga-labeled SB-FAP-01 in FAP+ HT-1080 and wild type tumors; assay type: in vivo; conditions: 60 minutes after intravenous administration
# Procedure: Small animal PET/CT imaging was performed at 60 minutes after intravenous administration to this mirroring experimental model; and […]
# PREP = PREP (Homo sapiens (Human), UniProt P48147); test: PREP inhibition assay (recombinant enzyme, Z-Gly-Pro-AMC substrate); assay type: biochemical; conditions: Table 4
# Sequence of PREP (P48147 whole entry): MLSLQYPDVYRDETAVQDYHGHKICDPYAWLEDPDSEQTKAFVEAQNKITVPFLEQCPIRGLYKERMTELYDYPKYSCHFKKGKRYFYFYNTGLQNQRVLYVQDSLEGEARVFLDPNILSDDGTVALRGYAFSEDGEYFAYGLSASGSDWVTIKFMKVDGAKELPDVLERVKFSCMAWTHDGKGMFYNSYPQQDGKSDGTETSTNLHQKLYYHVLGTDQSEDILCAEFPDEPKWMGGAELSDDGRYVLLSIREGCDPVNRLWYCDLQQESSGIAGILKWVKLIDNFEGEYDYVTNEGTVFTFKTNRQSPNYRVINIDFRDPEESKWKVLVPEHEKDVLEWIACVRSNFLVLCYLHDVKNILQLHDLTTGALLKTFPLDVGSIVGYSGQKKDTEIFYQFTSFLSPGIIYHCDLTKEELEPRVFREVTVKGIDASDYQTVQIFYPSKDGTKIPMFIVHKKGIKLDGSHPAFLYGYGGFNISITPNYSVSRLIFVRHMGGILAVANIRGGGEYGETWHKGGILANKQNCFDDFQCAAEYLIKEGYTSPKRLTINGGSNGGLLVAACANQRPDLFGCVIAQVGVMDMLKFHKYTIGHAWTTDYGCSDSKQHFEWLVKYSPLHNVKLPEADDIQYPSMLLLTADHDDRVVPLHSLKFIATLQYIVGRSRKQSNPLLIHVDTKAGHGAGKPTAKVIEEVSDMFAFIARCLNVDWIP
# Procedure: as §1
# DPPIV = DPPIV (Homo sapiens (Human), UniProt P27487); test: DPPIV inhibition assay (recombinant enzyme, H-Gly-Pro-AMC substrate); assay type: biochemical; conditions: Table 4; read-out: DPPIV IC50
# Sequence of DPPIV (P27487 whole entry): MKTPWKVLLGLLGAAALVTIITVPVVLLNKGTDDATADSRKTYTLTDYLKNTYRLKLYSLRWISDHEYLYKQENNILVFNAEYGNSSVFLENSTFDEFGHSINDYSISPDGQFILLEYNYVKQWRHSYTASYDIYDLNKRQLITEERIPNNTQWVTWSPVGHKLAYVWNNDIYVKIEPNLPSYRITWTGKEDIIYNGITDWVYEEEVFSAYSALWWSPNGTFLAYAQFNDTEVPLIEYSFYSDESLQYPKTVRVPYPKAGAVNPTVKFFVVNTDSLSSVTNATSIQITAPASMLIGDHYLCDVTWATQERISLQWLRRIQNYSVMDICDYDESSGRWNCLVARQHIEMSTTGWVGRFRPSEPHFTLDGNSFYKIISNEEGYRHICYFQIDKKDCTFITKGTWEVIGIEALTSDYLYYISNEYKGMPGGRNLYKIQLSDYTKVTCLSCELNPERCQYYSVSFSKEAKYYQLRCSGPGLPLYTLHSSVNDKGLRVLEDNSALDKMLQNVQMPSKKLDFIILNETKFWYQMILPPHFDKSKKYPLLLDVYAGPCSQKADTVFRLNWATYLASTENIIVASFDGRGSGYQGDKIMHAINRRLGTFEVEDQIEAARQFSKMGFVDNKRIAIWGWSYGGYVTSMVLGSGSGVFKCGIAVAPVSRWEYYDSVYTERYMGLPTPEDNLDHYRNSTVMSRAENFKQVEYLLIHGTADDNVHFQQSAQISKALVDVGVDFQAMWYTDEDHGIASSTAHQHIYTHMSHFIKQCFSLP
# Procedure: as §1
# PSMA = PSMA (Homo sapiens (Human), UniProt Q04609); test: PSMA competitive inhibition assay (NAAG substrate, LNCaP cell lysate); assay type: biochemical
# Sequence of PSMA (Q04609 whole entry): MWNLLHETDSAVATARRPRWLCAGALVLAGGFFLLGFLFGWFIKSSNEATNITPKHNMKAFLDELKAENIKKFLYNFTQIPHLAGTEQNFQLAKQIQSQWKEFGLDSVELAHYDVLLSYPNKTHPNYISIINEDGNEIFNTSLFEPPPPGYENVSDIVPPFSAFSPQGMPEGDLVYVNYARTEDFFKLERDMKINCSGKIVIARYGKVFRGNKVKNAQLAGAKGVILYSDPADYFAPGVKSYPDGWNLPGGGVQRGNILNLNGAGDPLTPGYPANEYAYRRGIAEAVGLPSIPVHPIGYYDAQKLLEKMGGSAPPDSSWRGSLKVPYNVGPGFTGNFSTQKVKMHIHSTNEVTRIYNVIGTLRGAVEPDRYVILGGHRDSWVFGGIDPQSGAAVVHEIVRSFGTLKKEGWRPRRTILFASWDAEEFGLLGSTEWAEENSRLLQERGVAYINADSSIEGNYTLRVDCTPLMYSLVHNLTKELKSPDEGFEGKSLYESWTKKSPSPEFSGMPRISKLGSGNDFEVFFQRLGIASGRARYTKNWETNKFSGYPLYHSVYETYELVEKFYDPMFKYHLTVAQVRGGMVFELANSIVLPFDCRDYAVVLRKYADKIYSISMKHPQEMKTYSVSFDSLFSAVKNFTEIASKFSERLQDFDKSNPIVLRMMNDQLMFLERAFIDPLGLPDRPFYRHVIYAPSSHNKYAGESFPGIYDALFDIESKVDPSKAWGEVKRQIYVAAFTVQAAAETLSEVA
# Procedure: as §1
# [1] = PET imaging and biodistribution in SK-MEL-24 tumor-bearing mice; assay type: in vivo, mouse; conditions: mouse, intravenous, SK-MEL-24 in NSG mice, 20 μCi; for tissue uptake at 1 h: n=3
# Procedure: (§2) Cell uptake assays, flow cytometry, and IHC were performed as described previously. Banerjee et al., 2019; Nimmagadda et al., 2018. PET imaging and biodistribution Sequential PET imaging and biodistribution studies were conducted to quantify and validate PET imaging data. Briefly, tumor-bearing mice were administrated approximately 7.4 MBq of radiotracer in 150 μL saline via tail-vein injection. They were randomized into the indicated groups of 3-4 mice before radiotracer injection.
# (§3) In Experiment 2, SK-MEL-24 tumor-bearing mice (n=3-4) were investigated.
# (§4) Dose: 20 μCi, n=3 at 1 h and n=4 at 2 and 4 h per group, Tumor model: SK-MEL-24 in NSG mice
# SK-MEL-24 tumor = test: as above; assay type: in vivo, mouse; conditions: SK-MEL-24 in NSG mice, 20 μCi, in %ID/g
# Procedure: as §2, §3, §4
# Sequence of FAP (Q12884 whole entry): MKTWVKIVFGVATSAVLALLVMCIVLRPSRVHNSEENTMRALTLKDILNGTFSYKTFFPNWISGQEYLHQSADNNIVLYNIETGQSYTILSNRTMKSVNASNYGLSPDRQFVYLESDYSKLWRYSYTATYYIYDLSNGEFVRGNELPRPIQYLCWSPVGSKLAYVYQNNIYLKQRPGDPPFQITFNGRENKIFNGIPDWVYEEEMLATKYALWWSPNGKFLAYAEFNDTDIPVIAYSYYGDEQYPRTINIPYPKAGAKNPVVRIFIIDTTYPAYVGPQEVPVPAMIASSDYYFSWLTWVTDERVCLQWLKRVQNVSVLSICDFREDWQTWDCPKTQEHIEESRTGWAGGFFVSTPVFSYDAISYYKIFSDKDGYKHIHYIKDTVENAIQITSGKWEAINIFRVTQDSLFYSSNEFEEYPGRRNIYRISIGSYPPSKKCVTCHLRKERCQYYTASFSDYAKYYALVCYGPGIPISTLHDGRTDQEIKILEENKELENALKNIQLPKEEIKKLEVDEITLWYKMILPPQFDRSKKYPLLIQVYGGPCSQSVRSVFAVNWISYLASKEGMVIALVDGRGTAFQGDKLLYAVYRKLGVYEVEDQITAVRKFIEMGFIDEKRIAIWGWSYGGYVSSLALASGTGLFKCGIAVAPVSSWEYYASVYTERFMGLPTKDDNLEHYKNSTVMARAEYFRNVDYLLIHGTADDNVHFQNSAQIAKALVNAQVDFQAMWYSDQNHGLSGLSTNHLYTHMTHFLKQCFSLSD
smiles,measurement,setting,value
"N#C[C@@H]1CCCN1C(=O)CNC(=O)c1ccnc2ccc(OCCCNC(=O)CCc3cn(CCOCCOCCOCCC(=O)N[C@@H](CCCCNC(=O)CN4CCN(CC(=O)O)CCN(CC(=O)O)CCN(CC(=O)O)CC4)C(=O)NCCCCC(=O)N(CCCC[C@H](NC(=O)N[C@@H](CCC(=O)O)C(=O)O)C(=O)O)Cc4ccc(Br)cc4)nn3)cc12 [SB-FAP-01, (14S,27S,31S)-22-(4-bromobenzyl)-1-(4-(3-((3-((4-((2-((S)-2-cyanopyrrolidin-1-yl)-2-oxoethyl)carbamoyl)quinolin-6-yl)oxy)propyl)amino)-3-oxopropyl)-1H-1,2,3-triazol-1-yl)-12,15,21,29-tetraoxo-14-(4-(2-(4,7,10-tris(carboxymethyl)-1,4,7,10-tetraazacyclododecan-1-yl)acetamido)butyl)-3,6,9-trioxa-13,16,22,28,30-pentaazatritriacontane-27,31,33-tricarboxylic acid]",Ki,"FAP; 95% CI, read-out: FAP Binding affinity Ki (95% CI)",0.25 to 0.51 nM
same,IC50,FAP; Table 4,1.79 nM
same,Ki,"FAP; Table 4, read-out: FAP Ki",0.36 nM
same,Ki,FAP; read-out: FAP Binding affinity Ki,0.36 nM
same,PET/CT tumor imaging,FAP+ HT-1080 tumors,"able to image tumors derived from FAP+ HT-1080 human fibrosis cells engineered to overexpressed FAP, but not those which are not"
same,IC50,PREP,350 nM
same,IC50,DPPIV,16900 nM
same,Ki,"PSMA; 95% CI, read-out: PSMA Binding affinity Ki (95% CI)",7.3 to 37.9 nM
same,IC50,PSMA; Table 4,83.2 nM
same,Ki,"PSMA; Table 4, read-out: PSMA Ki",16.6 nM
same,Ki,PSMA; read-out: PSMA Binding affinity Ki,16.6 nM
N#C[C@@H]1CCCN1C(=O)CNC(=O)c1ccnc2ccc(OCCCNC(=O)CCc3cn(CCOCCOCCOCCOCCOCCOCCC(=O)N[C@@H](CCCCNC(=O)CN4CCN(CC(=O)O)CCN(CC(=O)O)CC4)C(=O)NCCCCC(=O)N(CCCC[C@H](NC(=O)N[C@@H](CCC(=O)O)C(=O)O)C(=O)O)Cc4ccc(Br)cc4)nn3)cc12,tissue uptake at 1 h,"[1]; bladder, read-out: Biodistribution: Bladder",3.53 ± 0.52 %ID/g
same,tissue uptake at 1 h,"[1]; lacrimal gland, read-out: Biodistribution: Lac gl",9.2 ± 1.74 %ID/g
same,tissue uptake at 2 h,"[1]; lacrimal gland, 2 h, n=4, read-out: Biodistribution: Lac gl",7 ± 2.22 %ID/g
same,tissue uptake at 4 h,"[1]; lacrimal gland, n=4, read-out: Biodistribution: Lac gl",3.01 ± 1.94 %ID/g
same,tissue uptake at 1 h,"[1]; salivary gland, read-out: Biodistribution: Sal gl",12.6 ± 2.46 %ID/g
same,tissue uptake at 4 h,"[1]; salivary gland, n=4, read-out: Biodistribution: Sal gl",4.47 ± 0.89 %ID/g
same,tissue uptake at 4 h,"[1]; small intestine, n=4, read-out: Biodistribution: Sm in",3.54 ± 0.57 %ID/g
same,Biodistribution: Blood,"SK-MEL-24 tumor; 1 h, n=3",9.73 ± 0.29
same,Biodistribution: Bone,"SK-MEL-24 tumor; 1 h, n=3",6.00 ± 0.27
same,Biodistribution: Fat,"SK-MEL-24 tumor; 1 h, n=3",0.80 ± 0.31
same,Biodistribution: Heart,"SK-MEL-24 tumor; 1 h, n=3",4.36 ± 0.23
same,Biodistribution: Kidney,"SK-MEL-24 tumor; 1 h, n=3",8.08 ± 1.48
same,Biodistribution: Liver,"SK-MEL-24 tumor; 1 h, n=3",5.30 ± 0.77
same,Biodistribution: Lung,"SK-MEL-24 tumor; 1 h, n=3",7.30 ± 1.16
same,Biodistribution: Muscle,"SK-MEL-24 tumor; 1 h, n=3",2.99 ± 0.18
same,Biodistribution: Panc,"SK-MEL-24 tumor; 1 h, n=3",9.98 ± 0.99
same,Biodistribution: SKMEL24,"SK-MEL-24 tumor; 1 h, n=3",13.25 ± 1.32
same,Biodistribution: Sm in,"SK-MEL-24 tumor; 1 h, n=3",6.52 ± 0.85
same,Biodistribution: Spleen,"SK-MEL-24 tumor; 1 h, n=3",3.06 ± 0.46
same,Biodistribution: Stomach,"SK-MEL-24 tumor; 1 h, n=3",3.29 ± 1.04
same,Biodistribution: Bladder,"SK-MEL-24 tumor; 2 h, n=4",4.76 ± 2.68
same,Biodistribution: Blood,"SK-MEL-24 tumor; 2 h, n=4",6.36 ± 0.89
same,Biodistribution: Bone,"SK-MEL-24 tumor; 2 h, n=4",5.61 ± 1.73
same,Biodistribution: Fat,"SK-MEL-24 tumor; 2 h, n=4",0.91 ± 0.83
same,Biodistribution: Heart,"SK-MEL-24 tumor; 2 h, n=4",2.92 ± 0.27
same,Biodistribution: Kidney,"SK-MEL-24 tumor; 2 h, n=4",8.05 ± 1.27
same,Biodistribution: Liver,"SK-MEL-24 tumor; 2 h, n=4",5.82 ± 0.72
same,Biodistribution: Lung,"SK-MEL-24 tumor; 2 h, n=4",5.76 ± 0.57
same,Biodistribution: Muscle,"SK-MEL-24 tumor; 2 h, n=4",2.24 ± 0.42
same,Biodistribution: Panc,"SK-MEL-24 tumor; 2 h, n=4",6.66 ± 0.38
same,Biodistribution: SKMEL24,"SK-MEL-24 tumor; 2 h, n=4",12.48 ± 1.03
same,Biodistribution: Sm in,"SK-MEL-24 tumor; 2 h, n=4",5.44 ± 1.52
same,Biodistribution: Spleen,"SK-MEL-24 tumor; 2 h, n=4",2.56 ± 0.40
same,Biodistribution: Stomach,"SK-MEL-24 tumor; 2 h, n=4",3.20 ± 0.85
same,Biodistribution: Bladder,"SK-MEL-24 tumor; 4 h, n=4",4.63 ± 1.72
same,Biodistribution: Blood,"SK-MEL-24 tumor; 4 h, n=4",3.29 ± 0.07
same,Biodistribution: Bone,"SK-MEL-24 tumor; 4 h, n=4",3.42 ± 0.92
same,Biodistribution: Fat,"SK-MEL-24 tumor; 4 h, n=4",0.49 ± 0.14
same,Biodistribution: Heart,"SK-MEL-24 tumor; 4 h, n=4",1.87 ± 0.26
same,Biodistribution: Kidney,"SK-MEL-24 tumor; 4 h, n=4",7.26 ± 3.43
same,Biodistribution: Liver,"SK-MEL-24 tumor; 4 h, n=4",6.03 ± 1.00
same,Biodistribution: Lung,"SK-MEL-24 tumor; 4 h, n=4",4.55 ± 0.51
same,Biodistribution: Muscle,"SK-MEL-24 tumor; 4 h, n=4",1.32 ± 0.22
same,Biodistribution: Panc,"SK-MEL-24 tumor; 4 h, n=4",4.48 ± 0.88
same,Biodistribution: SKMEL24,"SK-MEL-24 tumor; 4 h, n=4",9.82 ± 3.39
same,Biodistribution: Spleen,"SK-MEL-24 tumor; 4 h, n=4",2.69 ± 0.44
same,Biodistribution: Stomach,"SK-MEL-24 tumor; 4 h, n=4",2.23 ± 0.58
